# Results as given in patent US20100204142A1, “USE OF THE PEPTIDE PHPFHLFVY (RENIN INHIBITOR) AS A THERAPEUTIC AGENT” (priority 2007, published 2010).
# Where no end group is shown, it is not given here.
# Key:
# HepG2-2.2.15 cells = test: Cytotoxicity in HepG2-2.2.15 cells (dye uptake); type: cell-based; settings: dye uptake assay, % cell control
# Description: HepG2-2.2.15 cells were plated in 96-well microtiter plates. After 16-24 hours the confluent monolayer of HepG2-2.2.15 cells was washed and the medium was replaced with complete medium containing test peptide—10 micrograms per ml—in duplicate. Lamivudine (3TC) was used as the positive control, while media alone was added to the cells as a negative control (virus control). Three days later the culture medium was replaced with fresh medium containing the peptide. Six days following the initial administration of the peptide, the cell culture supernatants was collected, treated with pronase and DNAse and then used in a real-time quantitative TaqMan PCR assay. The PCR-amplified HBV DNA was detected in real-time by monitoring increases in fluorescence signals that result from the exonucleolytic degradation of a quenched fluorescence probe molecule that hybridizes to the amplified HBV DNA. For each PCR amplification, a standard curve was simultaneously generated using dilutions of purified HBV DNA. Antiviral activity was calculated from the reduction in HBV DNA levels (% virus control). A novel dye uptake assay was then employed to measure cell viability, which is used to calculate toxicity (% cell control).
# [1] = tested on: HIV-1 infected CEM-SS cells (strain HIV-1IIIB); test: HIV-1 antiviral assay (CPE reduction, MTS); type: cell-based; settings: peptide 10 micrograms per ml, 6 days post-infection
# CEM-SS cells = test: Cytotoxicity in CEM-SS cells (MTS); settings: CEM-SS cells plus peptide only, peptide 10 micrograms per ml
# in vitro = type: cell-based; settings: human, MRC-5 cells
# Description: The following day, peptide was added and tested in duplicates.
# Pseudomonas aeruginosa = type: cell-based; settings: 5 micrograms per ml
# MRSA = settings: 5 micrograms per ml
# Streptococcus pneumoniae = type: cell-based; settings: 5 micrograms per ml
molecule,measurement,setting,value
"Nc1ccn([C@@H]2CS[C@H](CO)O2)c(=O)n1 [3TC, Lamivudine, reference compound]",% Cell viability,HepG2-2.2.15 cells,95.8%
Cc1cn([C@H]2C[C@H](N=[N+]=[N-])[C@@H](CO)O2)c(=O)[nH]c1=O [AZT],% CPE reduction in HIV-1 infected CEM-SS cells,[1],99%
same,% Cell viability,CEM-SS cells,97%
PHPFHLFVY-OH [Renin inhibitor],viability at 144 h,in vitro,100%
same,% inhibition,Pseudomonas aeruginosa,0.0%
same,% inhibition,MRSA,0.0%
same,% inhibition,Streptococcus pneumoniae,0.0%
